Assay results published in US8871681B2, “Herbicidal compositions comprising 4-amino-3-chloro-5-fluoro-6-(4-chloro-2-fluoro-3-methoxyphenyl) pyridine-2-carboxylic acid or a derivative thereof and certain sulfonylureas” (Dow AgroSciences LLC, priority 2012, dated 2014).

Assays:
[1] = system: GALAP (Galium aparine, cleavers); experiment: Post-emergence foliar-applied weed control in cereal crops, greenhouse (Example III); format: in vivo, Galium aparine (L.); conditions: Table 51, after 20-22 days, 8.75 gai/ha alone
Method: Seeds of the desired test plant species were planted in Sun Gro MetroMix® 306 planting mixture, which typically has a pH of 6.0 to 6.8 and an organic matter content of about 30 percent, in plastic pots with a surface area of 103.2 square centimeters (cm^2). When required to ensure good germination and healthy plants, a fungicide treatment and/or other chemical or physical treatment was applied. The plants were grown for 7-36 days in a greenhouse with an approximate 14 hour photoperiod which was maintained at about 18° C. during the day and 17° C. during the night. Nutrients and water were added on a regular basis and supplemental lighting was provided with overhead metal halide 1000-Watt lamps as necessary. […]
Measured aliquot of benzyl ester of 4-amino-3-chloro-5-fluoro-6-(4-chloro-2-fluoro-3-methoxy-phenyl)pyridine-2-carboxylic acid (Compound A) was placed in 25 milliliter (mL) glass vials and diluted in a volume of 1.25% (v/v) Agri-dex crop oil concentrated to obtain stock solutions. […]
The treated plants and control plants were placed in a greenhouse as described above and watered by sub-irrigation to prevent wash-off of the test compounds. After 20-22 days, the condition of the test plants as compared with that of the control plants was determined visually and scored on a scale of 0 to 100 percent where 0 corresponds to no injury and 100 corresponds to complete kill. […]

[2] = system: VERPE (Veronica persica, bird's-eye speedwell); experiment: as above; format: in vivo, Veronica persica Poir.
Summary of the method: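 Greenhouse plants at the second or third true leaf stage (14 hour photoperiod, about 18/17 °C) were track-sprayed at 187 L/ha with Compound A SC, a second cereal herbicide, or their combinations, using 1.25% v/v crop oil concentrate. Injury was scored visually at 20-22 days against solvent-blank controls on a 0–100% scale. Expected mixture effects were calculated with Colby's equation.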

[3] = system: SETFA (Setaria faberi, giant foxtail); experiment: Pre-emergence soil-applied weed control, greenhouse (Example V); format: in vivo, Setaria faberi Herrm.; conditions: Table 59 (pre-emergence)
Description: Seeds or nutlets of the desired test plant species were planted in a soil matrix prepared by mixing a loam soil (32 percent silt, 23 percent clay, and 45 percent sand, with a pH of about 6.5 and an organic matter content of about 1.9 percent) and calcareous grit in an 80 to 20 ratio. The soil matrix was contained in plastic pots with a volume of 1 quart and a surface area of 83.6 square centimeters (cm^2).
Treatments consisted of the benzyl ester of 4-amino-3-chloro-5-fluoro-6-(4-chloro-2-fluoro-3-methoxy-phenyl)pyridine-2-carboxylic acid (compound A) formulated as an SC (suspension concentrate) and various herbicidal components alone and in combination. Forms of compound A were applied on an acid equivalent basis.
Other herbicidal components were applied on an acid equivalent or active ingredient basis and included the acetolactate synthase (ALS)-inhibiting herbicide, flazasulfuron, formulated as Katana®.
Treatment requirements were calculated based upon the rates being tested, the concentration of active ingredient or acid equivalent in the formulation, and a 12 mL application volume at a rate of 187 L/ha.
For treatments comprised of formulated compounds, measured amounts of compounds were placed individually in 25 mL glass vials and diluted in a volume of 1.25% (v/v) Agri-Dex® crop oil concentrate (COC) to obtain 12× stock solutions. […] Application solutions were prepared by adding an appropriate amount of each stock solution (e.g., 1 mL) and diluted to the appropriate final concentrations with the addition of 10 mL of an aqueous mixture of 1.25% (v/v) COC so that the final spray solutions contained 1.25% (v/v) COC. […]
The treated and control pots were placed in a greenhouse and top watered as needed. […] After approximately 4 weeks, the condition of the test plants as compared with that of the untreated plants was determined visually and scored on a scale of 0 to 100 percent where 0 corresponds to no injury or growth inhibition and 100 corresponds to complete kill. […]

## COc1c(Cl)ccc(-c2nc(C(=O)OCc3ccccc3)c(Cl)c(N)c2F)c1F [Compound A Benzyl Ester]
[1]
  Weed Control GALAP Obs: 70%
[2]; Table 51, after 20-22 days, 8.75 gai/ha alone
  Weed Control VERPE Obs: 50%
[2]; Table 53, after 20-22 days, 8.75 gai/ha alone
  Weed Control VERPE Obs: 50%
[2]; Table 55, after 20-22 days, 8.75 gai/ha alone
  Weed Control VERPE Obs: 50%
[2]; Table 57, after 20-22 days, 8.75 gai/ha Compound A Benzyl Ester alone
  Weed Control VERPE Obs: 50%
[3]; 16 gae/ha alone
  Visual Weed Control (%) - 27 DAA SETFA Obs: 8%
[3]; 32 gae/ha alone
  Visual Weed Control (%) - 27 DAA SETFA Obs: 15%
